Results: PMC3832545 (PLoS ONE, 2013)
Marks after values point to notes of the source that are not given here.

Tests used:
MC38 cell allografts = assay: Growth of MC38 cell tumor allografts in mice with diet-induced obesity; type: in vivo, mouse; settings: 600 nmol/kg sc twice daily; for Tumor end volume, mean / Tumor end volume, fold change relative to vehicle: day 14; for AUC tumor growth, mean / AUC tumor growth, fold change relative to vehicle: day 0 to 14
Protocol: We focused on different endpoints in these animal experiments and monitored tumor growth in all experiments, see Table 1. The animal experiments were performed as described recently. […] Animal care and treatments were conducted in accordance with established guidelines and protocols approved by the Lady Davis Institute (protocol # 5951) and McGill University's Animal Ethics Committee. Mice were housed one mouse per cage with ad libitum access to tap water and high- or low fat diet, respectively, throughout the studies. The temperature in the animal rooms was maintained at 20-25°C with a light/dark cycle of 14/10 hours. Mice were acclimatized for 7-10 days before experimental procedures were initiated. At experimental day 0, 2.0×10^5 (experiment A) or 5.0×10^5 (all other experiments) MC38 cells, suspended in 100 μl phosphate-buffered saline (PBS), were injected subcutaneously (sc) in the right flank of the mice. […] The size of the tumor allografts was measured three times per week and the volume calculated using the following formula: length × width^2 × 0.52. Based on the tumor volume data for each mouse, we calculated the area under the tumor growth curves (tumor growth AUC). At termination of the experiments, mice were anesthetized with isoflurane. Blood was collected by cardiac puncture and immediately after euthanasia by cervical dislocation, samples of the liver, colon, gastrocnemius muscle and the MC38 cell tumor allografts were dissected out and snap-frozen in liquid nitrogen for later preparation of tissue lysate. The effect of treatment on tumor growth in each of the five animal experiments were analysed in a one-way ANOVA followed by pairwise comparison of each treatment with vehicle using multiple t-tests with Dunnetts correction for each of the two tumor growth endpoints; tumor end volume and area under the tumor growth curves (tumor growth AUC). The results of this analysis for each experiment, i.e., mean values for each treatment, 95% confidence intervals and the fold change of each treatment relative to vehicle, are shown in Table 3. To examine treatment-related effects on tumor growth across all five animal experiments, we for each endpoint (tumor end volume and tumor growth AUC) pooled all data in one dataset and analysed them in a mixed linear model with treatment as a fixed explanatory variable and experiment as a random effect. No significant interaction between treatment and experiment was found for the any of the two outcomes (tumor end volume and tumor growth AUC). To further explore the differences between treatments, pairwise comparisons of each type of treatment were done using multiple t-test with Bonferonni correction. No outliers were observed among the 131 observations of tumor end volume, whereas one outlier was identified among the 131 observations of tumor growth AUC.

[1] = tested on: PI3K signalling pathway in MC38 cell allografts; assay: Signalling in MC38 tumor allografts in vivo, Western blot; set-up: species or system mouse; settings: MC38 tumor allografts collected 1 h after sc administration, DIO-mice
Protocol: We focused on different endpoints in these animal experiments and monitored tumor growth in all experiments, see Table 1. The animal experiments were performed as described recently. […] Animal care and treatments were conducted in accordance with established guidelines and protocols approved by the Lady Davis Institute (protocol # 5951) and McGill University's Animal Ethics Committee. Mice were housed one mouse per cage with ad libitum access to tap water and high- or low fat diet, respectively, throughout the studies. The temperature in the animal rooms was maintained at 20-25°C with a light/dark cycle of 14/10 hours. Mice were acclimatized for 7-10 days before experimental procedures were initiated. At experimental day 0, 2.0×10^5 (experiment A) or 5.0×10^5 (all other experiments) MC38 cells, suspended in 100 μl phosphate-buffered saline (PBS), were injected subcutaneously (sc) in the right flank of the mice. […] The size of the tumor allografts was measured three times per week and the volume calculated using the following formula: length × width^2 × 0.52. Based on the tumor volume data for each mouse, we calculated the area under the tumor growth curves (tumor growth AUC). At termination of the experiments, mice were anesthetized with isoflurane. […] Incubation with secondary antibody (horse radish peroxidase-conjugated goat anti-rabbit IgG (Santa-Cruz Biotechnology, Santa Cruz, CA, USA, cat. no 5401) and visualization of protein bands was done as described previously. The intensity of protein bands was quantified using the software ImagePro (BioRad). In each cell signalling experiment, band intensities were normalized to the mean of the vehicle-treated samples. IR and IGF-1R bands in the liver, muscle colon and MC38 cell allografts were normalized to mean band intensities in liver and muscle samples, respectively.

[2] = all experiments (A–E) pooled, mixed linear model, DIO-mice
[3] = all experiments (A–E) pooled, mixed linear model, one outlier excluded, DIO-mice
[4] = experiment C, n = 6, 5.0×10^5 MC38 cells sc, DIO-mice
[5] = experiment D, n = 8–10, 5.0×10^5 MC38 cells sc, DIO-mice
[6] = experiment A, n = 6, 2.0×10^5 MC38 cells sc, DIO-mice
[7] = experiment A, n = 6, 2.0×10^5 MC38 cells sc, male C57BL/6 DIO-mice
[8] = experiment B, n = 6, 5.0×10^5 MC38 cells sc, DIO-mice
[9] = experiment E, n = 10, 5.0×10^5 MC38 cells sc, DIO-mice

| Substance | Tumor end volume, mean (MC38 cell allografts; [2]) | AUC tumor growth, mean (MC38 cell allografts; [3]) | AUC tumor growth, mean (MC38 cell allografts; [4]) | Tumor end volume, mean (MC38 cell allografts; [4]) | AUC tumor growth, mean (MC38 cell allografts; [5]) | Tumor end volume, mean (MC38 cell allografts; [5]) | Activation of Akt, p70S6K and mTOR in tumor allografts [1] | AUC tumor growth, mean (MC38 cell allografts; [6]) | Tumor end volume, mean (MC38 cell allografts; [7]) | AUC tumor growth, mean (MC38 cell allografts; [8]) | Tumor end volume, mean (MC38 cell allografts; [8]) | AUC tumor growth, mean (MC38 cell allografts; [9]) | Tumor end volume, mean (MC38 cell allografts; [9]) | other results |
| --- | --- | --- | --- | --- | --- | --- | --- | --- | --- | --- | --- | --- | --- | --- |
| IGF-1: recombinant human IGF-1 (Increlex, IPSEN Pharma GmbH) | 686.3 mm^3 | 2499.8 day × mm^3 | 2596.8 day × mm^3 | 724.6 mm^3 | 2207.1 day × mm^3 | 616.0 mm^3 | pronounced activation |  |  |  |  |  |  |  |
| human insulin [HI] | 409.5 mm^3 | 1542.1 day × mm^3 | 1309.5 day × mm^3 | 374.5 mm^3 | 1483.0 day × mm^3 | 397.7 mm^3 | pronounced activation | 1539.6 day × mm^3 | 439.3 mm^3 | 1725.4 day × mm^3 | 434.3 mm^3 | 1421.9 day × mm^3 | 365.6 mm^3 |  |
| insulin analog B10Asp [X10] | 500.5 mm^3 | 1851.9 day × mm^3 | 2060.9 day × mm^3 | 646.8 mm^3 | 1394.4 day × mm^3 | 345.8 mm^3 | pronounced activation | 1880.9 day × mm^3 | 500.7 mm^3 | 2167.5 day × mm^3 | 558.4 mm^3 | 1836.1 day × mm^3 | 427.0 mm^3 | Tumor end volume, fold change relative to vehicle (MC38 cell allografts; [2]): 1.5 ^* fold; AUC tumor growth, fold change relative to vehicle (MC38 cell allografts; [3]): 1.5 ^* fold; AUC tumor growth, fold change relative to vehicle (MC38 cell allografts; [6]): 0.9 fold; Tumor end volume, fold change relative to vehicle (MC38 cell allografts; [6]): 1.0 fold; AUC tumor growth, fold change relative to vehicle (MC38 cell allografts; [8]): 1.8 fold; Tumor end volume, fold change relative to vehicle (MC38 cell allografts; [8]): 1.7 fold; AUC tumor growth, fold change relative to vehicle (MC38 cell allografts; [4]): 1.8 ^* fold; Tumor end volume, fold change relative to vehicle (MC38 cell allografts; [4]): 2.0 ^* fold; AUC tumor growth, fold change relative to vehicle (MC38 cell allografts; [5]): 1.6 fold; Tumor end volume, fold change relative to vehicle (MC38 cell allografts; [5]): 1.9 fold; AUC tumor growth, fold change relative to vehicle (MC38 cell allografts; [9]): 1.4 fold; Tumor end volume, fold change relative to vehicle (MC38 cell allografts; [9]): 1.3 fold |
